Test results taken from a compilation of properties of binary mixtures (doi:10.1016/j.molliq.2017.06.010).

Experiment: xn = mol fraction of the nth substance listed
Details: 303.15 K, 100 kPa

SMILES: CCC(=O)[O-].OCC[NH2+]c1ccccc1 + O
- electrical conductivity (x2 = 0.015): 0.0004 S/m
- speed of sound (x2 = 0.015): 1522.1 m/s
- viscosity (x2 = 0.015): 16.6 mPa·s
- electrical conductivity (x2 = 0.0341): 0.0004 S/m
- speed of sound (x2 = 0.0341): 1524.3 m/s
- viscosity (x2 = 0.0341): 15.2 mPa·s
- electrical conductivity (x2 = 0.0417): 0.0004 S/m
- speed of sound (x2 = 0.0417): 1525.3 m/s
- viscosity (x2 = 0.0417): 14.7 mPa·s
- electrical conductivity (x2 = 0.0546): 0.0004 S/m
- speed of sound (x2 = 0.0546): 1526.8 m/s
- viscosity (x2 = 0.0546): 13.8 mPa·s

SMILES: CCCC(=O)[O-].OCC[NH2+]c1ccccc1 + O
- electrical conductivity (x2 = 0.016): 0.0005 S/m
- speed of sound (x2 = 0.016): 1508.9 m/s
- viscosity (x2 = 0.016): 18.1 mPa·s
- electrical conductivity (x2 = 0.0386): 0.0005 S/m
- speed of sound (x2 = 0.0386): 1509.4 m/s
- viscosity (x2 = 0.0386): 16.9 mPa·s
- electrical conductivity (x2 = 0.0546): 0.0005 S/m
- speed of sound (x2 = 0.0546): 1509.8 m/s
- viscosity (x2 = 0.0546): 16.3 mPa·s
- electrical conductivity (x2 = 0.0724): 0.0005 S/m
- speed of sound (x2 = 0.0724): 1510.4 m/s
- viscosity (x2 = 0.0724): 15.4 mPa·s
